The source of these data is patent publication US20090023685A1, “Nebulized or Sprayed Cidofovir for Recurrent Respiratory Papillomatosis” (priority 2007, published 2009).

The test system of this data set is Recurrent Respiratory Papillomatosis due to Human Papillomavirus subtype 6 (HPV-6). The experiment in a line: Case report: systemic, topical and nebulized cidofovir in a young child with recurrent respiratory papillomatosis. It counts as in vivo. As to the method:
We decided that applying cidofovir using a flexible bronchoscope and a cytology brush soaked in cidofovir would be a reasonable method to attempt to deliver the drug to the papillomas. We used the intravenous form of the drug, diluted to the concentration used in the gel based formula.
Therefore, we made a 4 ml solution at the same concentration we were using for the topical application.
Therefore, we elected to nebulize the drug (Cidofovir 10 mg/ml in NS, 4 cc, 3 times/week).
Background: a person is an ex-prem (24 week GA) born to a mom who had antenatal bleeding and had been given steroids prior to delivery. Their postnatal course was complicated by Respiratory distress syndrome (mechanical ventilation for 52 days, CPAP for 28 days and O2 for 30 days), a patent ductus arteriousus (indomethacin & surgical ligation), hemodynamic instability necessitating inotropic support and renal failure. Following discharge home a person had severe GERD, (L) inguinal hernia repair and was described to have colic.
Presentation: At 10½ months of age, they presented to the Children's Hospital Emergency Room with increasing difficulties breathing. […] They were admitted to hospital and subsequently transferred to the Pediatric intensive care unit. They were diagnosed with upper airway obstruction and treated with Heliox (80:20) and nebulized racemic epinephrine. […] They underwent tracheostomy.
Initial management: Suspension laryngoscopy with CO2 laser for debulking papillomas was performed ×6 (locally) and ×2 (larger tertiary centre) (FIG. 1b). […] Palliation was discussed with the […].
Adjuvant therapy: Medical management was initiated 6 months into treatment.
Topical and nebulized cidofovir: The patient was started on topically applied cidofovir via flexible bronchoscopy q2 weeks in addition to continuing the intravenous (systemic) dose. A cytology brush was soaked in cidofovir 10 mg/ml solution and advanced via the bronchoscope to the lower airway papillomas (FIG. 2a). We elected to start nebulized cidofovir to reduce the frequency of Bronchoscopic procedures and to intensify treatment. […] After 6 months of nebulized cidofovir, the dose was reduced to 2× weekly.
Current status: A large papilloma was surgically debulked (microdebridment) and topical cidofovir was topically applied to the base of the lesion. […] undergoes surveillance bronchoscopy q3 months and continues on nebulized cidofovir 5 mg/ml, 4 cc 2× weekly (FIGS. 2c and 3b).

Entries after “also recorded” stand apart in the source; their conditions may differ.

For `Nc1ccn(C[C@@H](CO)OCP(=O)(O)O)c(=O)n1` [cidofovir], the current disease status result (after nebulized cidofovir, surgical debulking of a large papilloma and topical cidofovir to its base) is recorded as “papilloma free; also recorded: Her disease has remitted”. In addition, the effect on papillomatosis result (intravenous (systemic) cidofovir 4.1 mg/kg/dose every 4 weeks) was “without effect”. Also, the “effect in the lung (CT scans)” value (nebulized cidofovir) is “improvement in the lung”. For the same molecule, the “complications / side effects” value reads like this: (nebulized cidofovir 10 mg/ml, 4 ml (total dose 40 mg), 3× weekly) “bleeding (dose dependent & related to infection with bacteria; also recorded: cough”; (nebulized cidofovir 10 mg/ml, 4 ml (total dose 40 mg), 3× weekly, listed as Cidofovir) “hemoptysis; also recorded: bleeding and protracted airways inflammation”; (nebulized cidofovir after the dose was reduced (5 mg/ml; later 2 times/week)) “resolution of the complications”; (nebulized cidofovir after the dose was reduced (5 mg/ml; later 2 times/week), listed as Cidofovir) “without complications”. Also, the “effect on lower airway papillomas” value runs as follows: (nebulized cidofovir in saline, 4 ml, 2-3 times/week) “worked well; also recorded: reduction of the burden of the papillomas”; (nebulized cidofovir in saline, 4 ml, 2-3 times/week, listed as Cidofovir) “lower airway lesions have visually disappeared”; (topical cidofovir (10 mg/ml, thickened with sterile glycerine) applied by cytology brush via flexible bronchoscopy every 2 weeks) “worked to reduce the size of the papillomas”; (topical cidofovir (10 mg/ml, thickened with sterile glycerine) applied by cytology brush via flexible bronchoscopy every 2 weeks, listed as Cidofovir) “The lesions regressed”. In addition, the “papillomas in the main airway (trachea)” value (nebulized cidofovir, droplet size 2-4 microns) is given as “remained large”. For the same molecule, the course of disease result (systemic cidofovir q2 weeks plus Interferon α2b 5 MU/m^2 3× weekly, listed as Cidofovir) is “did not halt the progression of the disease”. Moreover, the course of lesions result (systemic cidofovir stepped down to q3 weeks (with Interferon α2b)) is “the lesions worsened”.
